Earlier results on one compound are cited in patent US7645466B2, “Methods for deriving, isolating, and/or extracting amino acid compositions from Fenugreek seed” (TSI Group Limited, priority 2004, dated 2010).

For this series, the system named is pancreatic beta cell. The note with it: micromolar concentrations; direct effect on pancreatic beta cell, glucose dependent.

Turning to `C[C@@H]([C@H](C)O)[C@H](N)C(=O)O` [4-hydroxyisoleucine], the glucose-induced insulin secretion result is “stimulate glucose-induced insulin secretion in micromolar concentrations”.
